Reference: patent US20110135571A1, “HYBRID NANOPARTICLES AS ANTI-CANCER THERAPEUTIC AGENTS AND DUAL THERAPEUTIC/IMAGING CONTRAST AGENTS” (priority 2008, published 2011)

Columns and labels:
[1] = tested on: MCF-7 cells (breast cancer); assay: MCF-7 Viability Assays; assay type: cell-based, human
Source text: (§1) Cell Lines All cell lines were purchased from the Tissue Culture Facility of the UNC Lineberger Comprehensive Cancer Center (Chapel Hill, N.C., United States of America) and cultured as per American Type Culture Collection (ATCC; Manassas, Va., United States of America) recommendations. HT29 cells (ATCC# HTB 38) were propagated in McCoy's 5A (Cellgro, Manassas, Va., United States of America) supplemented with 10% fetal bovine serum and 1% penicillin/streptomycin. MCF-7 cells (ATCC# HTB 22) were propagated in MEM Alpha (Cellgro, Manassas, Va., United States of America) supplemented with 10% fetal bovine serum, 1% penicillin/streptomycin, 1% sodium pyruvate, and 10 μg/mL insulin.
(§2) HT-29 viability assays: Angiogenic human colon cancer (HT-29) cells were grown in 96 well plates at 2000 cells/well to 100 μL total volume. After a 24 hour incubation, the media was replaced with 100 μL of drug solution containing 0.5% DMSO and 0.5% phosphate buffered saline (PBS) in media, with drug concentrations varying as indicated. All concentrations were performed in quadruplicate. Cell viability was measured after 72 hours using CellTiter 96 Aqueous One Solution Assay (Promega Corporation, Madison, Wis., United States of America), according to the manufacturer's protocol.
MCF-7 Viability Assays. As a further control, cell viability assays were also performed using MCF-7 cells (breast cancer). MCF-7 cells were assayed under the same conditions as HT-29, and also at 4000 cells/well and 72 hours. Unlike with HT-29, Pt(IV) drugs are active. […] NCP-1′-b was also tested but at 2000 cells/well.

[2] = tested on: Angiogenic human colon cancer (HT-29) cells; assay: HT-29 viability assays; assay type: cell-based; settings: HT-29, 2000 cells/well, 72 hours, untargeted particles
Source text: as §1, §2

[3] = MCF-7, 4000 cells/well, 72 hours

Row | IC50 ([1]; MCF-7, 2000 cells/well) [µM] | Molecule | IC50 [1, 3] [µM] | cell death on treatment of HT-29 cells [2]
1 | 2.1 | cis-Pt(NH3)2Cl2 [cisplatin] | 10.7 | –
2 | – | [NH2][Pt]([NH2])([Cl])([Cl])([O]C(=O)CCC(=O)O)[O]C(=O)CCC(=O)O [DSCP, c,c,t-Pt(NH3)2Cl2(O2CCH2CH2CO2H)2] | 11.1 | did not lead to any appreciable cell death
